Results reported in the supplement of paper PMC10307832.

How the values were obtained:
Experiment in all cases: relative viability (nuclei count vs DMSO), 5 days (fraction); higher = more cells survive
NCI-H2009 = test system: NCI-H2009
How it was run: (§1)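 Lung cancer cell lines were pin-tool dosed in 1536-well plates on the day after seeding, with either a lone drug or a fixed anchor-drug dose plus five library-drug doses (not always all listed) in √10 steps. Nuclei were counted on 4× images after 5 days. Relative viability is the ratio of treated-well to vehicle-well nuclei counts, with each value a median of duplicate plates.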

HCC-366 = test system: HCC-366
How it was run: as §1

NCI-H661 = test system: NCI-H661
How it was run: as §1

EKVX = test system: EKVX
How it was run: as §1

NCI-H2405 = test system: NCI-H2405
How it was run: as §1

SK-MES-1 = test system: SK-MES-1
How it was run: as §1

HCC-44 = test system: HCC-44
How it was run: as §1

BEN = test system: BEN
How it was run: as §1

SK-LU-1 = test system: SK-LU-1
How it was run: as §1

LC-2-ad = test system: LC-2-ad
How it was run: as §1

NCI-H2170 = test system: NCI-H2170
How it was run: as §1

NCI-H1792 = test system: NCI-H1792
How it was run: as §1

NCI-H596 = test system: NCI-H596
How it was run: as §1

HARA = test system: HARA
How it was run: as §1

LOU-NH91 = test system: LOU-NH91
How it was run: as §1

NCI-H2087 = test system: NCI-H2087
How it was run: as §1

NCI-H1734 = test system: NCI-H1734
How it was run: as §1

NCI-H2228 = test system: NCI-H2228
How it was run: as §1

NCI-H647 = test system: NCI-H647
How it was run: as §1

NCI-H1355 = test system: NCI-H1355
How it was run: as §1

HCC-827 = test system: HCC-827
How it was run: as §1

NCI-H1395 = test system: NCI-H1395
How it was run: as §1

NCI-H1437 = test system: NCI-H1437
How it was run: as §1

Structure (SMILES): CC(C)Oc1cc(Nc2nc(N[C@@H](C)c3ccc(F)cn3)ncc2Cl)n[nH]1 [AZ23] + CS(=O)(=O)CCNCc1ccc(-c2ccc3ncnc(Nc4ccc(OCc5cccc(F)c5)c(Cl)c4)c3c2)o1 [Lapatinib] (partner 2 µM)
- relative viability (NCI-H2009; first compound 0.01 µM): 0.97
- relative viability (NCI-H2009; first compound 0.03162 µM): 0.997
- relative viability (NCI-H2009; first compound 0.3162 µM): 0.918
- relative viability (HCC-366; first compound 0.01 µM): 0.905
- relative viability (HCC-366; first compound 0.03162 µM): 1.52
- relative viability (HCC-366; first compound 0.3162 µM): 1.11
- relative viability (NCI-H661; first compound 0.01 µM): 0.432
- relative viability (NCI-H661; first compound 0.03162 µM): 0.633
- relative viability (NCI-H661; first compound 0.3162 µM): 0.545
- relative viability (EKVX; first compound 0.01 µM): 0.188
- relative viability (EKVX; first compound 0.03162 µM): 0.207
- relative viability (EKVX; first compound 0.3162 µM): 0.192
- relative viability (NCI-H2405; first compound 0.01 µM): 1
- relative viability (NCI-H2405; first compound 0.03162 µM): 1.16
- relative viability (NCI-H2405; first compound 0.3162 µM): 0.943
- relative viability (SK-MES-1; first compound 0.01 µM): 0.492
- relative viability (SK-MES-1; first compound 0.03162 µM): 0.484
- relative viability (SK-MES-1; first compound 0.3162 µM): 0.491
- relative viability (HCC-44; first compound 0.01 µM): 1.01
- relative viability (HCC-44; first compound 0.03162 µM): 1.21
- relative viability (HCC-44; first compound 0.3162 µM): 1.09
- relative viability (BEN; first compound 0.01 µM): 0.807
- relative viability (BEN; first compound 0.03162 µM): 0.906
- relative viability (BEN; first compound 0.3162 µM): 0.708
- relative viability (SK-LU-1; first compound 0.01 µM): 0.929
- relative viability (SK-LU-1; first compound 0.03162 µM): 1.06
- relative viability (SK-LU-1; first compound 0.3162 µM): 1.06
- relative viability (LC-2-ad; first compound 0.01 µM): 1.32
- relative viability (LC-2-ad; first compound 0.03162 µM): 0.997
- relative viability (LC-2-ad; first compound 0.3162 µM): 0.912
- relative viability (NCI-H2170; first compound 0.01 µM): 0.267
- relative viability (NCI-H2170; first compound 0.03162 µM): 0.283
- relative viability (NCI-H2170; first compound 0.3162 µM): 0.27
- relative viability (NCI-H1792; first compound 0.01 µM): 1.17
- relative viability (NCI-H1792; first compound 0.03162 µM): 1.13
- relative viability (NCI-H1792; first compound 0.3162 µM): 0.995
- relative viability (NCI-H596; first compound 0.01 µM): 1.03
- relative viability (NCI-H596; first compound 0.03162 µM): 1.11
- relative viability (NCI-H596; first compound 0.3162 µM): 1.03
- relative viability (HARA; first compound 0.01 µM): 0.862
- relative viability (HARA; first compound 0.03162 µM): 0.708
- relative viability (HARA; first compound 0.3162 µM): 0.584
- relative viability (LOU-NH91; first compound 0.01 µM): 0.674
- relative viability (LOU-NH91; first compound 0.03162 µM): 0.787
- relative viability (LOU-NH91; first compound 0.3162 µM): 0.716
- relative viability (NCI-H2087; first compound 0.01 µM): 1.17
- relative viability (NCI-H2087; first compound 0.03162 µM): 1.17
- relative viability (NCI-H2087; first compound 0.3162 µM): 1.05
- relative viability (NCI-H1734; first compound 0.01 µM): 1.27
- relative viability (NCI-H1734; first compound 0.03162 µM): 1.23
- relative viability (NCI-H1734; first compound 0.3162 µM): 1.11
- relative viability (NCI-H2228; first compound 0.01 µM): 1.51
- relative viability (NCI-H2228; first compound 0.03162 µM): 0.867
- relative viability (NCI-H2228; first compound 0.3162 µM): 0.992
- relative viability (NCI-H647; first compound 0.01 µM): 1.71
- relative viability (NCI-H647; first compound 0.03162 µM): 1.27
- relative viability (NCI-H647; first compound 0.3162 µM): 1.34
- relative viability (NCI-H1355; first compound 0.01 µM): 1.16
- relative viability (NCI-H1355; first compound 0.03162 µM): 1.07
- relative viability (NCI-H1355; first compound 0.3162 µM): 0.939
- relative viability (HCC-827; first compound 0.01 µM): 0.205
- relative viability (HCC-827; first compound 0.03162 µM): 0.172
- relative viability (HCC-827; first compound 0.3162 µM): 0.21
- relative viability (NCI-H1395; first compound 0.03162 µM): 0.943
- relative viability (NCI-H1395; first compound 0.3162 µM): 1.03
- relative viability (NCI-H1437; first compound 0.01 µM): 0.729
- relative viability (NCI-H1437; first compound 0.03162 µM): 0.975
- relative viability (NCI-H1437; first compound 0.3162 µM): 0.957
